Values quoted from earlier work, collected in patent US9333171B2, “Controlled-release CNS modulating compositions and methods for the treatment of otic disorders” (Otonomy, Inc., priority 2008, dated 2016).

Legend:
V2-R = conditions: infusion into the scala tympani
guinea pigs = conditions: chronic administration in guinea pigs

Row | Structure (SMILES) | Effect on Meniere's disease symptoms (V2-R) | Induction of endolymphatic hydrops (guinea pigs)
1 | Cc1ccccc1C(=O)Nc1ccc(C(=O)N2CCCC(N(C)C)c3ccccc32)cc1 (centres unmarked) [OPC-31260] | marked reduction of Meniere's disease symptoms | 
2 | NC(=O)CC[C@@H]1NC(=O)[C@H](Cc2ccccc2)NC(=O)[C@H](Cc2ccc(O)cc2)NC(=O)[C@@H](N)CSSC[C@@H](C(=O)N2CCC[C@H]2C(=O)N[C@@H](CCCN=C(N)N)C(=O)NCC(N)=O)NC(=O)[C@H](CC(N)=O)NC1=O [VP, vasopressin] |  | induce endolymphatic hydrops
